For data set [1], the target named is T1, VHL (Homo sapiens, UniProt P40337).
T1 construct: expressed in transfected cells
The data set is described as follows: VHL HEK-293 BRET Assay (VHL NanoBRET Target Engagement Assay). It counts as cell-based. The conditions noted are these: for Ratio cell permeability shift: ratio not defined; for IC50: HEK 293 RT VHL-NanoLuc stable cells, 1 uM tracer, 2 hours, geometric mean where more than one measurement, read-out: VHL binding in cells (HEK293 nanoBRET). As to the method: (§1) The VHL NanoBRET™ Target Engagement Assay analyzes the apparent affinity of test compounds for VHL in cells by competitive displacement of a VHL NanoBRET™ tracer reversibly bound to a NanoLuc® VHL fusion protein stably expressed in the cells.
(§2) 50 nL of control compound (10 mM; parental unlabeled VHL antagonist; see structure below) and 50 nL of DMSO (negative control) were dispensed into the appropriate control wells. DMSO was backfilled to a final volume of 50 nL as required. […] Max Signal control wells consisted of DMSO only treated wells. Minimum Signal control wells contained of 10 uM parental unlabeled VHL antagonist (control compound—see structure below). […] Background Signal control wells were prepared without tracer for background correction steps.
(§3) The raw BRET ratio values were calculated by dividing the acceptor emission value (610 nm) by the donor emission value (460 nm) for each sample. To correct for background, the BRET ratio in the absence of tracer (average of no-tracer control samples) was subtracted from the BRET ratio of each sample. Raw BRET units were converted to milliBRET units (mBU) by multiplying each raw BRET value by 1,000. The normalized NanoBRET™ signal was calculated relative to the Max Signal control wells (DMSO treated control wells) and the Minimum Signal control wells. Percentage inhibition was calculated relative to the Minimum Signal control and Maximum Signal control wells. IC50 values were derived by four parameter curve fitting using the Robust method.
(BRET reads energy transfer from a luciferase to a nearby fluorophore.)

The target of data set [2] is T1, VHL. The data set is described as follows: VHL nanoBRET (+ Digitonin). It is filed as cell-based. As to the method: as §1, §2, §3

SMILES strings stand for the structures. Bounds are passed on as bounds.

T1 sequence (P40337 whole entry): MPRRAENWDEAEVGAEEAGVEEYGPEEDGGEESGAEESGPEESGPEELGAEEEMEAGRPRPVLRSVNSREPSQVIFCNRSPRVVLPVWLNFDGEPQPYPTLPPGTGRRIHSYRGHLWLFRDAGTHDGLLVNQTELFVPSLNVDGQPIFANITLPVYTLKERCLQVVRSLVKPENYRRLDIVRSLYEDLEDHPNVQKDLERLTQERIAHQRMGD

`Cc1ncsc1-c1ccc(CNC(=O)[C@@H]2C[C@@H](O)CN2C(=O)[C@H](C2CCCCC2)n2cc(C3CC3)nn2)cc1` [Example S25, (2S,4R)-1-((S)-2-cyclohexyl-2-(4-cyclopropyl-1H-1,2,3-triazol-1-yl)acetyl)-4-hydroxy-N-(4-(4-methylthiazol-5-yl)benzyl)pyrrolidine-2-carboxamide]: in data set [1], the “Ratio cell permeability shift” value was 0.67.

As a reminder, the EC50 is the concentration needed to bring the measured effect to its halfway point. Low readings indicate greater potency, high ones weaker potency. For `CC(=O)NCC1(c2cn([C@@H](C(=O)N3C[C@H](O)C[C@H]3C(=O)N[C@H](Cc3ccc(-c4ccccc4)cc3)C(N)=O)C(C)(C)C)nn2)CC1` [Example S12, (2S,4R)—N—((R)-3-([1,1′-biphenyl]-4-yl)-1-amino-1-oxopropan-2-yl)-1-((R)-2-(4-(1-(acetamidomethyl)cyclopropyl)-1H-1,2,3-triazol-1-yl)-3,3-dimethylbutanoyl)-4-hydroxypyrrolidine-2-carboxamide], the EC50 in data set [2] amounted to 24500 nM. Further, the IC50 in data set [1] was over 100000 nM.

As for `CC(C)[C@@H](C(=O)N1C[C@H](O)C[C@H]1C(=O)N[C@H](Cc1ccc(-c2ccccc2)cc1)C(N)=O)n1cc(-c2ccco2)nn1` [Example S39, (2S,4R)—N—((R)-3-([1,1′-biphenyl]-4-yl)-1-amino-1-oxopropan-2-yl)-1-((S)-2-(4-(furan-2-yl)-1H-1,2,3-triazol-1-yl)-3-methylbutanoyl)-4-hydroxypyrrolidine-2-carboxamide], in data set [2], the concentration giving a half-maximal response (EC50) came out at 110 nM. In data set [1], the IC50 was 110 nM and the “Ratio cell permeability shift” value stood at 0.93.

`CC(C)(C)[C@@H](C(=O)N1C[C@H](O)C[C@H]1C(=O)NCc1ccc(-c2ccccc2F)cc1)n1cc(C2CC2)nn1` [Example S43, (2S,4R)-1-((S)-2-(4-cyclopropyl-1H-1,2,3-triazol-1-yl)-3,3-dimethylbutanoyl)-N-((2′-fluoro-[1,1′-biphenyl]-4-yl)methyl)-4-hydroxypyrrolidine-2-carboxamide] displayed a concentration giving a half-maximal response (EC50) in data set [2] of 30 nM. For the same compound, in data set [1], the IC50 was 30 nM and the “Ratio cell permeability shift” value is on record as 1.03.

On to `Cc1ncsc1-c1ccc2c(c1)CCCC[C@@H]2NC(=O)[C@@H]1C[C@@H](O)CN1C(=O)[C@@H](n1cc(C2CC2)nn1)C(C)(C)C` [Example S45, (2S,4R)-1-((S)-2-(4-cyclopropyl-1H-1,2,3-triazol-1-yl)-3,3-dimethylbutanoyl)-4-hydroxy-N—((S)-2-(4-methylthiazol-5-yl)-6,7,8,9-tetrahydro-5H-benzo[7]annulen-5-yl)pyrrolidine-2-carboxamide], for which, in data set [2], the EC50 is 230 nM. In addition, in data set [1], the IC50 is 200 nM and the “Ratio cell permeability shift” value is given as 0.86.

Regarding `NC(=O)[C@@H](Cc1ccc(-c2ccccc2)cc1)NC(=O)[C@@H]1C[C@@H](O)CN1C(=O)[C@H](C1CCC1)n1cc(C2CC2)nn1` [Example S4, (2S,4R)—N—((R)-3-([1,1′-biphenyl]-4-yl)-1-amino-1-oxopropan-2-yl)-1-((S)-2-cyclobutyl-2-(4-cyclopropyl-1H-1,2,3-triazol-1-yl)acetyl)-4-hydroxypyrrolidine-2-carboxamide], the concentration for a half-maximal effect (EC50) in data set [2] turned out to be 200 nM. Further, in data set [1], the IC50 came to 190 nM and the “Ratio cell permeability shift” value is 0.96.

With `CC(=O)NCC1(c2cn([C@H](C(=O)N3C[C@H](O)C[C@H]3C(=O)N[C@H](Cc3ccc(-c4ccccc4)cc3)C(N)=O)C(C)(C)C)nn2)CC1` [Example S13, (2S,4R)—N—((R)-3-([1,1′-biphenyl]-4-yl)-1-amino-1-oxopropan-2-yl)-1-((S)-2-(4-(1-(acetamidomethyl)cyclopropyl)-1H-1,2,3-triazol-1-yl)-3,3-dimethylbutanoyl)-4-hydroxypyrrolidine-2-carboxamide], in data set [2], the EC50 is 220 nM. Also, in data set [1], the IC50 worked out at 2270 nM and the “Ratio cell permeability shift” value came to 10.22.

In data set [2], `CC(C)[C@H](C(=O)N1C[C@H](O)C[C@H]1C(=O)N[C@H](Cc1ccc(-c2ccccc2)cc1)C(N)=O)n1nnc2ccccc21` (single isomer, unassigned) [Isomer B from Example S36] gave a half-maximal effective concentration (EC50) of 68000 nM. Also, in data set [1], the IC50 amounted to 68500 nM and the “Ratio cell permeability shift” value is listed as 1.01.

As for `Cc1ncsc1-c1ccc([C@H](C)NC(=O)[C@@H]2C[C@@H](O)CN2C(=O)[C@H](C2CCCCC2)n2cc(C3CC3)nn2)cc1` [Example S19, (2S,4R)-1-((S)-2-cyclohexyl-2-(4-cyclopropyl-1H-1,2,3-triazol-1-yl)acetyl)-4-hydroxy-N—((S)-1-(4-(4-methylthiazol-5-yl)phenyl)ethyl)pyrrolidine-2-carboxamide], the 50% effective concentration (EC50) in data set [2] is under 5 nM. Further, in data set [1], the IC50 was under 5 nM and the “Ratio cell permeability shift” value is listed as about 1.

For `C[C@H](NC(=O)[C@@H]1C[C@@H](O)CN1C(=O)[C@@H](n1cc(C2CC2)nn1)C(C)(C)C)c1ccc(-c2ccccc2F)cc1` [Example S41, (2S,4R)-1-((S)-2-(4-cyclopropyl-1H-1,2,3-triazol-1-yl)-3,3-dimethylbutanoyl)-N—((S)-1-(2′-fluoro-[1,1′-biphenyl]-4-yl)ethyl)-4-hydroxypyrrolidine-2-carboxamide], the response in data set [2] was half-maximal at 10 nM (EC50). Further, in data set [1], the IC50 was found to be 10 nM and the “Ratio cell permeability shift” value is 0.72.

Regarding `Cc1ncsc1-c1ccc([C@@H](NC(=O)[C@@H]2C[C@@H](O)CN2C(=O)[C@@H](n2cc(C3CC3)nn2)C(C)(C)C)C(F)(F)F)cc1` [Example S40, (2S,4R)-1-((S)-2-(4-cyclopropyl-1H-1,2,3-triazol-1-yl)-3,3-dimethylbutanoyl)-4-hydroxy-N—((R)-2,2,2-trifluoro-1-(4-(4-methylthiazol-5-yl)phenyl)ethyl)pyrrolidine-2-carboxamide], the EC50 in data set [2] came out at 110 nM. In addition, in data set [1], the IC50 amounted to 80 nM and the “Ratio cell permeability shift” value is 0.74.

Regarding `Cc1ncsc1-c1ccc(C(C)NC(=O)[C@@H]2C[C@@H](O)CN2C(=O)[C@@H](n2cc(C3CC3)nn2)C(C)(C)C)c(Cl)c1` (stereo partly drawn) [Example S22, (2S,4R)—N-(1-(2-chloro-4-(4-methylthiazol-5-yl)phenyl)ethyl)-1-((S)-2-(4-cyclopropyl-1H-1,2,3-triazol-1-yl)-3,3-dimethylbutanoyl)-4-hydroxypyrrolidine-2-carboxamide], the response in data set [2] was half-maximal at 10 nM (EC50). For the same compound, in data set [1], the IC50 turned out to be 10 nM and the “Ratio cell permeability shift” value came to 0.72.

The compound `CC(C)[C@@H](C(=O)N1C[C@H](O)C[C@H]1C(=O)N[C@H](Cc1ccc(-c2ccccc2)cc1)C(N)=O)n1nnc2ccccc21` (single isomer, unassigned) [Isomer A from Example S36] yielded an EC50 in data set [2] of 390 nM. In data set [1], the IC50 came out at 300 nM and the “Ratio cell permeability shift” value worked out at 0.77.

On to `C[C@H](NC(=O)[C@@H]1C[C@@H](O)CN1C(=O)[C@@H](n1cc(C2CC2)nn1)C(C)(C)C)c1ccc(-c2ccccc2Cl)cc1` [Example S46, (2S,4R)—N—((S)-1-(2′-chloro-[1,1′-biphenyl]-4-yl)ethyl)-1-((S)-2-(4-cyclopropyl-1H-1,2,3-triazol-1-yl)-3,3-dimethylbutanoyl)-4-hydroxypyrrolidine-2-carboxamide], for which the 50% effective concentration (EC50) in data set [2] was determined as 10 nM. In data set [1], the IC50 came to 10 nM and the “Ratio cell permeability shift” value stood at 0.84.

In data set [2], `Cc1ncsc1-c1ccc(C(C)NC(=O)[C@@H]2C[C@@H](O)CN2C(=O)[C@@H](n2cc(C3CC3)nn2)C23CC4CC(CC(C4)C2)C3)c(Cl)c1` (stereo partly drawn) [Example S23, (2S,4R)-1-((2S)-2-(adamantan-1-yl)-2-(4-cyclopropyl-1H-1,2,3-triazol-1-yl)acetyl)-N-(1-(2-chloro-4-(4-methylthiazol-5-yl)phenyl)ethyl)-4-hydroxypyrrolidine-2-carboxamide] came in with a concentration giving a half-maximal response (EC50) of 40 nM. Also, in data set [1], the IC50 was 20 nM and the “Ratio cell permeability shift” value is recorded as 0.42.

Regarding `COC(=O)c1nnn([C@@H](C(=O)N2C[C@H](O)C[C@H]2C(=O)N[C@H](Cc2ccc(-c3ccccc3)cc2)C(N)=O)C(C)C)c1C` (single isomer, unassigned) [Isomer A from Example S33], the EC50 in data set [2] was determined as 43700 nM. Besides, in data set [1], the IC50 is 62500 nM and the “Ratio cell permeability shift” value is 1.43.

With `Cc1c(C(=O)O)nnn1[C@H](C(=O)N1C[C@H](O)C[C@H]1C(=O)N[C@H](Cc1ccc(-c2ccccc2)cc1)C(N)=O)C(C)C` [Example S35, 1-((S)-1-((2S,4R)-2-(((R)-3-([1,1′-biphenyl]-4-yl)-1-amino-1-oxopropan-2-yl)carbamoyl)-4-hydroxypyrrolidin-1-yl)-3-methyl-1-oxobutan-2-yl)-5-methyl-1H-1,2,3-triazole-4-carboxylic acid], the midpoint of the response in data set [2], the EC50, lay at 13000 nM.

In the case of `Cc1c(C(=O)O)nnn1[C@@H](C(=O)N1C[C@H](O)C[C@H]1C(=O)N[C@H](Cc1ccc(-c2ccccc2)cc1)C(N)=O)C(C)C` [Example S34, 1-((R)-1-((2S,4R)-2-(((R)-3-([1,1′-biphenyl]-4-yl)-1-amino-1-oxopropan-2-yl)carbamoyl)-4-hydroxypyrrolidin-1-yl)-3-methyl-1-oxobutan-2-yl)-5-methyl-1H-1,2,3-triazole-4-carboxylic acid], the concentration giving a half-maximal response (EC50) in data set [2] is over 100000 nM.

Values taken from patent US20230391766A1, “1-(2-(4-CYCLOPROPYL-1H-1,2,3-TRIAZOL-1-YL)ACETYL)-4-HYDROXY-N-(BENZYL)PYRROLIDIN E-2-CARBOXAMIDE DERIVATIVES AS VHL INHIBITORS FOR THE TREATMENT OF ANEMIA AND CANCER” (Genentech, Inc., priority 2020, published 2023).
